Structures can show the parent of a compound that is named as a salt.
What was measured:
Format in all cases: physicochemical
[1] = Slurry study of potassium salt Form III in organic solvents and water (XRPD)
Experimental: A slurry study of Form III of the potassium salt in an array of solvents was conducted at 25° C. and 50° C. Approximately 20 mg of Form III of the potassium salt was suspended in 0.5 mL of a solvent (EtOH, IPA, NBA, MEK, acetone, MTBE, EtOAc, IPAc, heptane, DCM, THE, MeCN, and water) and stirred at 25° C. or 50° C. for seven days. Then, the solid sample was collected by vacuum filtration and was analyzed by XRPD.

[2] = Solid-state stability (60° C./closed and 40° C./75% relative humidity open, up to seven days; HPLC purity, XRPD)
Experimental: HPLC method for stability and solubility testing is listed below.
• Column: Ascentis® Express C18 4.6*150 mm*2.7 μm • Mobile Phase A: 0.05% trifluoroacetic acid in water • Mobile Phase B: Methanol • Gradient (T/B %): 0/10, 10/100, 13.5/10, 15/10 • Column Temperature: 40° C. • Detector: DAD; 220 nm • Flow rate: 1.0 mL/min • Injection volume: 1 μL • Concentration: 1 mg/mL • Run time: 15 minutes • Diluent: Methanol:Water 9:1 (v/v)
The solid-state stability of Form III of the potassium salt was performed using the following protocol: • (1) A sample of Form III of the potassium salt was placed at 60° C./closed and 40° C./75% relative humidity (open) conditions for up to seven days. At the onset of the test (day 0) and day 7 of the test, the sample was dissolved in a diluent to prepare a 1 mg/mL solution for HPLC purity analysis. The solid sample was analyzed by XRPD to assess the crystal form of each solid at day 7. […] The XRPD data confirmed the physicochemical stability of Form III of the potassium salt under both closed and open conditions. […]

[3] = Dynamic vapor sorption (DVS); details: for DVS weight gain: 25° C., listed as Form III of the potassium salt
Experimental: Moisture sorption/desorption data was collected on a Vsorp Dynamic Moisture Sorption Analyzer (ProUmid GmbH & Co. KG, Germany). The sample was placed into a tared sample chamber and automatically weighed.
• Equilibrium Condition: 0.01%/40 min • Time between weighing cycles: 10 minutes • Minimum time per climate cycle: 50 minutes • Maximum time per climate cycle: 2.0 hour • Balanced condition: 25° C. at 60% […] for 4 hours • Sample temperature: 25° C. • Adsorption: 70, 80, 90 • Desorption: 80, 70, 60, 50, 40, 30, 20, 10, 0 • Adsorption: 10, 20, 30, 40, 50, 60

[4] = Solubility in simulated biological fluid (FaSSGF and FaSSIF) at 37° C., HPLC; pH of filtrate, XRPD of filter cake; details: for times more soluble than the free acid (Form II): 0.5-hour mark; for pH (0 h) / Concentration / pH (24 h) / XRPD (filter cake, crystal form): 37° C.; for Concentration / pH (24 h) / XRPD (filter cake, crystal form): listed as K salt Form III; for pH (24 h): filtrate; for XRPD (filter cake, crystal form): up to 24 hours
Experimental: (§1) Approximately between 15 mg and 24 mg of sample was suspended in 5 mL or 8 mL of FaSSGF or FaSSIF, respectively. The resulting suspension was shaken at 700 rpm with a QQMSC-100 shaker at 37° C. The suspension was sampled and filtered at certain time intervals, which was achieved by sampling 1000 μL of each suspension which was then filtered and diluted, diluting the resulting filtrate for HPLC analysis to assess solubility. The pH of the filtrate was measured, and the filter cake was analyzed by XRPD.
as §1, with “Approximately” for “Approximately between”, “mg to” for “mg and”, “5” for “5 mL”, “suspension” for “suspension which”, “was” for “was then”
Approximately 15 mg to 24 mg of sample was suspended in 5 or 8 mL of FaSSGF or FaSSIF, respectively. The resulting suspension was shaken at 700 rpm with a QQMSC-100 shaker at 37° C. The suspension was sampled and filtered in certain time interval, which was achieved by sampling 1000 μL of each suspension was filtered and diluted, diluting the resulting filtrate for HPLC analysis to assess solubility. The pH of the filtrate was measured, and the filter cake was analyzed by XRPD.

## CNC(=O)c1ncn2cc(-c3c(F)ccc(NS(=O)(=O)c4cc(Cl)cnc4OC)c3F)ncc12 [Potassium salt Form III, 6-(3-((5-chloro-2-methoxypyridine)-3-sulfonamido)-2,6-difluorophenyl)-N-methylimidazo[1,5-a]pyrazine-1-carboxamide]
[1]; slurry in Acetone, 25° C.
  Result at 3 days (XRPD): Potassium salt Form III
  Result at 7 days (XRPD): Potassium salt Form III
[1]; slurry in DCM, 25° C.
  Result at 3 days (XRPD): Potassium salt Form III
  Result at 7 days (XRPD): Potassium salt Form III
[1]; slurry in DCM, 50° C.
  Result at 3 days (XRPD): Potassium salt Form III
  Result at 7 days (XRPD): Potassium salt Form III
[1]; slurry in EtOAc, 25° C.
  Result at 3 days (XRPD): Potassium salt Form III
  Result at 7 days (XRPD): Potassium salt Form III
[1]; slurry in EtOAc, 50° C.
  Result at 3 days (XRPD): Potassium salt Form III
  Result at 7 days (XRPD): Potassium salt Form III
[1]; slurry in Heptane, 25° C.
  Result at 3 days (XRPD): Potassium salt Form III
  Result at 7 days (XRPD): Potassium salt Form III
[1]; slurry in Heptane, 50° C.
  Result at 3 days (XRPD): Potassium salt Form III
  Result at 7 days (XRPD): Potassium salt Form III
[1]; slurry in IPA, 25° C.
  Result at 3 days (XRPD): Potassium salt Form III
  Result at 7 days (XRPD): Potassium salt Form III
[1]; slurry in IPA, 50° C.
  Result at 3 days (XRPD): Potassium salt Form I
  Result at 7 days (XRPD): Potassium salt Form I
[1]; slurry in IPAc, 25° C.
  Result at 3 days (XRPD): Potassium salt Form III
  Result at 7 days (XRPD): Potassium salt Form III
[1]; slurry in IPAc, 50° C.
  Result at 3 days (XRPD): Potassium salt Form III
  Result at 7 days (XRPD): Potassium salt Form III
[1]; slurry in MEK, 25° C.
  Result at 3 days (XRPD): Potassium salt Form III
  Result at 7 days (XRPD): Potassium salt Form III
[1]; slurry in MEK, 50° C.
  Result at 3 days (XRPD): Potassium salt Form III
  Result at 7 days (XRPD): Potassium salt Form III
[1]; slurry in MTBE, 25° C.
  Result at 3 days (XRPD): Potassium salt Form III
  Result at 7 days (XRPD): Potassium salt Form III
[1]; slurry in MTBE, 50° C.
  Result at 3 days (XRPD): Potassium salt Form III
  Result at 7 days (XRPD): Potassium salt Form III
[1]; slurry in MeCN, 25° C.
  Result at 3 days (XRPD): Potassium salt Form III
  Result at 7 days (XRPD): Potassium salt Form III
[1]; slurry in MeCN, 50° C.
  Result at 3 days (XRPD): Potassium salt Form I
  Result at 7 days (XRPD): Potassium salt Form I
[1]; slurry in NBA, 25° C.
  Result at 3 days (XRPD): Potassium salt Form III
  Result at 7 days (XRPD): Potassium salt Form III
[1]; slurry in NBA, 50° C.
  Result at 3 days (XRPD): Potassium salt Form III
  Result at 7 days (XRPD): Potassium salt Form III
[1]; slurry in THF, 25° C.
  Result at 7 days (XRPD): Potassium salt Form III
[1]; slurry in THF, 50° C.
  Result at 7 days (XRPD): Potassium salt Form III
[2]; 0 day
  Purity (Area %) 220 nm: 99.90 Area %
[2]; 40° C./75% RH (open)
  XRPD After 7 Days: Unchanged
[2]; 40° C./75% RH (open), 7 days
  Purity (Area %) 220 nm: 99.90 Area %
[2]; 60° C./closed, 7 days
  Purity (Area %) 220 nm: 99.90 Area %
  XRPD After 7 Days: Unchanged
[2]; both closed (60° C.) and open (40° C./75% RH) conditions for seven days
  physical and chemical stability: maintained physical and chemical stability
[3]; 0 to 80% relative humidity
  DVS weight gain: around 0.18%
[3]; 0 to 90% relative humidity
  DVS weight gain: ~0.23%
[3]; 60 to 80% relative humidity
  DVS weight gain: around 0.13%
[3]; class by weight gain to 80% relative humidity
  Hygroscopicity (DVS): non-hygroscopic (non-hygroscopic may be defined as a <0.2% weight gain to 80% relative humidity)
[4]; FaSSGF
  times more soluble than the free acid (Form II): about 230 times
  pH (0 h): 1.60
  pH (24 h): 1.66
  XRPD (filter cake, crystal form): Changed
[4]; FaSSGF, 0.5 h
  Concentration: 46.8 µg/mL
[4]; FaSSGF, 2.0 h
  Concentration: 4.6 µg/mL
[4]; FaSSIF
  times more soluble than the free acid (Form II): about 100 times
  pH (0 h): 6.50
  pH (24 h): 6.83
  XRPD (filter cake, crystal form): Changed
[4]; FaSSIF, 0.25 h
  Concentration: 155 µg/mL
[4]; FaSSIF, 0.5 h
  Concentration: 164 µg/mL
[4]; FaSSIF, 0.75 h
  Concentration: 160 µg/mL
[4]; FaSSIF, 1.0 h
  Concentration: 155 µg/mL
[4]; FaSSIF, 2.0 h
  Concentration: 14.5 µg/mL
